Data set [1] deals with estrogenic response. The data set can be described thus: Estrogenic Response Test, immature rats (uterine weight). The format is in vivo, immature 40-45 g. female rats. The note with it: Experiment C; total dose 3 mg., s.c. As for the experimental part:
The first test reported below is used to determine the estrogenic potency of compounds. It is well known that many compounds having antiestrogenic activity also, typically, have estrogenic activity. As has been explained, estrogenic activity is a liability in an antiestrogen, and thus it is important to identify antiestrogens having a minimum amount of estrogenic activity. This test was conducted with immature 40-45 g. female rats, immature 11-13 g. mice, and adult ovariectomized mice. The rats were tested in groups of six, and mice in groups of ten. All of the laboratory animals were from standardized strains and were equilibrated to the laboratory before the test started. Each test was begun by administering the test compound daily for three days, as a subcutaneous injection or by oral gavage, as indicated below in the reports of individual experiments. Untreated control animals were included in each experiment, along with animals to which estradiol was administered subcutaneously. The estradiol-treated animals provided positive controls, showing the physiological effect of a potent estrogen on the individual group of animals used in the experiment. […] The test animals were treated for three days and sacrificed on the fourth day, and the uteri were removed, freed of extraneous tissue, and blotted with paper towels. The uteri were weighed to the nearest 0.1 mg. The tables below report the results of representative experiments. The doses of estradiol and of the compound of this invention are given as the total of the three daily doses. The uterine weights are given, in mg., as the means of all of the organ weights of the animals in a group. Compounds are referred to by their example numbers above.

Data set [2] concerns estrogenic response of estradiol. The data set can be described thus: Antiestrogenic Test, immature rats (uterine weight). Format: in vivo. The settings on record: Experiment I, 3 mg., s.c. + estradiol 0.3 mcg. As for the experimental part:
This test was conducted with immature 40-45 g. female rats, immature 11-13 g. mice, and adult ovariectomized mice. The rats were tested in groups of six, and mice in groups of ten. All of the laboratory animals were from standardized strains and were equilibrated to the laboratory before the test started. Each test was begun by administering the test compound daily for three days, as a subcutaneous injection or by oral gavage, as indicated below in the reports of individual experiments.
The test animals were treated for three days and sacrificed on the fourth day, and the uteri were removed, freed of extraneous tissue, and blotted with paper towels. The uteri were weighed to the nearest 0.1 mg.
The uterine weights are given, in mg., as the means of all of the organ weights of the animals in a group. Compounds are referred to by their example numbers above.
The same standardized types of laboratory animals which were used in the experiments described above were also used in these experiments. […] Untreated control animals were used in each experiment. […] The dosage and sacrifice schedule, and the method of determining uterine weights and reporting data, were the same as the methods described above under Test 1.

Data set [3] can be described thus: Stability of the product on observation after several days. The format is physicochemical.
In data set [4] the test system is uterine epithelial cells. The note with it: known side-effect of earlier anti-estrogens; cited from earlier work.

For `O=C(O)C(F)(F)F.O=C(c1ccc(OCCN2CCCCC2)cc1)c1c(-c2ccc(OC(=O)C(F)(F)F)cc2)sc2cc(OC(=O)C(F)(F)F)ccc12` [Example 9, 6-trifluoroacetoxy-2-(4-trifluoroacetoxyphenyl)-3-[4-(2-piperidinoethoxy)benzoyl]benzo[b]thiophene, trifluoroacetate], the “Uterine weight” value in data set [1] was found to be 31.3 mg; in data set [2], 38.1 mg. In addition, the “hydrolysis of ester groups” value in data set [3] is recorded as “some hydrolysis of one or both ester groups had occurred”.
For `CC/C(=C(\c1ccccc1)c1ccc(OCCN(C)C)cc1)c1ccccc1` [Tamoxifen, 1-(4-β-dimethylaminoethoxyphenyl)-1,2-diphenylbut-1-ene], the “effect on uterine epithelial cells” value in data set [4] is “causes abnormal growth of uterine epithelial cells”.

The values above are taken from US4418068A, “Antiestrogenic and antiandrugenic benzothiophenes” (Eli Lilly and Company, priority 1981, dated 1983).
